In series [1] the target is T1, Human neutrophil elastase (HNE) (Homo sapiens, UniProt P08246).
T1 sequence (P08246 30-267): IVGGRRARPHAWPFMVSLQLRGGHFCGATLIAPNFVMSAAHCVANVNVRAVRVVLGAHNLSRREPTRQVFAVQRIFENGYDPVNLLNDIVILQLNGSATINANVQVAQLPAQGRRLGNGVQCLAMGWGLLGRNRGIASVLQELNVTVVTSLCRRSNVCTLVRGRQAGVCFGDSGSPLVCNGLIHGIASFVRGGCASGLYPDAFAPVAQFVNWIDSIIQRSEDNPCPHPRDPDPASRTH
Nature of the series: HNE inhibition assay. It counts as biochemical.

A further series has as its target T2, HNE (Homo sapiens, UniProt P08246).
T2 sequence (P08246 30-267): T1 sequence (P08246 30-267)
Put plainly: HNE inhibition over time. It is filed as biochemical. Particulars: for period of maximal HNE inhibition (during the first x h): 5 μM compound; for time to recovery of HNE activity after treatment: up to 5 μM compound.

The target of a further series is human plasma thrombin (Homo sapiens, UniProt P00734). Nature of the series: Thrombin inhibition. It is filed as biochemical.
The next series deals with human urine urokinase (Homo sapiens, UniProt P00749). Put plainly: Urokinase inhibition. It is filed as biochemical.
Series [2] can be described thus: Spontaneous hydrolysis in aqueous buffer. It is filed as physicochemical. Particulars: 20 μM.
Series [3] deals with human pancreas chymotrypsin. Nature of the series: Chymotrypsin inhibition. It is filed as biochemical.
Another series concerns the target human plasma kallikrein (Homo sapiens, UniProt P03952). Put plainly: Kallikrein inhibition. It is filed as biochemical.

This is an account of results in article PMC3807862 (Journal of medicinal chemistry, 2013).

As usually defined, the IC50 is the concentration that gives 50% inhibition. Lower therefore signals higher potency.

Chain of human plasma kallikrein (P03952 20-638): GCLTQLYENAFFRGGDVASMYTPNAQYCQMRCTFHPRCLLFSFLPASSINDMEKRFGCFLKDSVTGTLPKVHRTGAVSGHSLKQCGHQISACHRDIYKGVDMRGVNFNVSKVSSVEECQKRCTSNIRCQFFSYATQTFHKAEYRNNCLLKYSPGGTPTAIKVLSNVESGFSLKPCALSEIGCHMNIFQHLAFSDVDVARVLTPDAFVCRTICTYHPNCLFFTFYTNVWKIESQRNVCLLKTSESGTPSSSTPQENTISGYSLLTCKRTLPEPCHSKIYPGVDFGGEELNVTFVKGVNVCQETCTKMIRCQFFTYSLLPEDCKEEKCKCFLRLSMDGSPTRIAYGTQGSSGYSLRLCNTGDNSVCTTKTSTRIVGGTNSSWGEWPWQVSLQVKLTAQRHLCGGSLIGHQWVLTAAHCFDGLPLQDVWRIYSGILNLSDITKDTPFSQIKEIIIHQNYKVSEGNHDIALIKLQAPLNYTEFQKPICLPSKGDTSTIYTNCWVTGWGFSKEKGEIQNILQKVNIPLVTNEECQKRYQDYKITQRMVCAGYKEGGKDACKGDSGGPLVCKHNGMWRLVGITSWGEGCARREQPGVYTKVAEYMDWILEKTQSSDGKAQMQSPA

Consider `CCOC(=O)c1nn(C(=O)c2ccccc2)c2ccc(OC)cc12` [Compound 31d, 1-Benzoyl-5-methoxy-1H-indazole-3-carboxylic Acid Ethyl Ester], for which the “increase of HNE inhibitory activity compared to the reference compounds A and F” value in series [1] is recorded as 2-3 fold.

For the compound `COC(=O)c1nn(C(=O)c2cccc(C)c2)c2ccc([N+](=O)[O-])cc12` [Compound 14b, 1-(3-Methylbenzoyl)-5-nitro-1H-indazole-3-carboxylic Acid Methyl Ester], the “period of maximal HNE inhibition (during the first x h)” value (“period of maximal HNE inhibition” below) at HNE is 4 h. Take `Cc1cccc(C(=O)n2nc(C#N)c3ccccc32)c1` [Compound 5b, 1-(3-Methylbenzoyl)-1H-indazole-3-carbonitrile]: the “thrombin inhibition (in words)” value at human plasma thrombin was “at micromolar concentrations”. In addition, the “urokinase inhibition (in words)” value at human urine urokinase is “at micromolar concentrations”. Besides, the “time after which compound was hydrolyzed almost completely” value in series [2] is 35 min. As to `CCOC(=O)c1nn(C(=O)c2cccc(C)c2)c2ccc(NC(C)=O)cc12` [Compound 20a, 5-Acetylamino-1-(3-methylbenzoyl)-1H-indazole-3-carboxylic Acid Ethyl Ester], the “period of maximal HNE inhibition” value at HNE is on record as 4 h. For `COC(=O)c1nn(C(=O)c2cccc(C)c2)c2c([N+](=O)[O-])cccc12` [Compound 16, 1-(3-Methylbenzoyl)-7-nitro-1H-indazole-3-carboxylic Acid Methyl Ester], in series [1], the “HNE inhibitory activity (in words)” value is “inactive”. `COC(=O)c1nn(C(=O)c2cccc(C)c2)c2cc([N+](=O)[O-])ccc12` [Compound 15, 1-(3-Methylbenzoyl)-6-nitro-1H-indazole-3-carboxylic Acid Methyl Ester]: the “period of maximal HNE inhibition” value on HNE was 4 h. With `CCOC(=O)c1nn(C(=O)c2cccc(C)c2)c2ccc(NC(=O)C3CC3)cc12` [Compound 20f, 5-(Cyclopropanecarbonylamino)-1-(3-methylbenzoyl)-1H-indazole-3-carboxylic Acid Ethyl Ester], the IC50 in series [1] was approximately 10 nM. Further, in series [3], the “chymotrypsin inhibition (in words)” value is on record as “lowest activity for this enzyme”. Moreover, the “urokinase inhibition (in words)” value at human urine urokinase is “no inhibitory activity”. In addition, the “period of maximal HNE inhibition” value at HNE was found to be 5 h.

On to `COC(=O)c1nn(C(=O)c2ccccc2)c2ccc([N+](=O)[O-])cc12` [Compound 14a, 1-Benzoyl-5-nitro-1H-indazole-3-carboxylic Acid Methyl Ester], for which the “kallikrein inhibition (in words)” value on human plasma kallikrein is listed as “inhibited kallikrein”. In addition, on HNE, the “time to recovery of HNE activity after treatment” value is 1 to 2 h. Turning to `CCOC(=O)c1nn(C(=O)c2ccsc2)c2ccc([N+](=O)[O-])cc12` [Compound 14h, 5-Nitro-1-(thiophene-3-carbonyl)-1H-indazole-3-carboxylic Acid Ethyl Ester], the “time to recovery of HNE activity after treatment” value on HNE lay within 1 to 2 h. As to `CCOC(=O)c1nn(C(=O)c2cccc(C)c2)c2ccc(OC(F)(F)F)cc12` [Compound 31g, 1-(3-Methylbenzoyl)-5-trifluoromethoxy-1H-indazole-3-carboxylic Acid Ethyl Ester], the “increase of HNE inhibitory activity compared to the reference compounds A and F” value in series [1] is given as 2-3 fold.
